{"source": "patent US20120301895A1", "about": "“METHODS OF MODULATING BINDING OF SON OF SEVENLESS TO PHOSPHATIDIC ACID AND IDENTIFYING COMPOUNDS THAT MODULATE SUCH BINDING” (THE RESEARCH FOUNDATION OF STATE UNIVERSITY OF NEW YORK, priority 2007, published 2012)", "key": {"[1]": {"details": "mouse models, high concentrations; cited from earlier work"}, "[2]": {"tested_on": "B-cell chronic lymphocytic leukemia cells", "details": "Battle et al. 2005; cited from earlier work"}, "[3]": {"tested_on": "PLD activity in Calu-1 cells", "assay": "In vivo PLD activity in Calu-1 lung cancer cells", "format": "cell-based, human", "details": "honokiol 20 μM, 4 hr", "method": "In FIG. 17A, T24 and Calu1 cells (obtained from the American Type Culture Collection) were plated in DMEM containing 10% serum for 48 hr and then shifted to either 10% serum or 0.5% serum overnight as indicated. Honokiol (20 μM) or control ethanol was then added for 4 hr as indicated. [^3H]-Myristate was added with the honokiol. After 4 hr, BtOH (0.7%) was added for 20 min, at which time the cells were harvested and the level of phosphatidyl-BtOH (P-Bt) was determined as in FIGS. 12A-C. The experiments shown are representative of at least two independent experiments. In FIG. 17B, T24 and Calu-1 cells were plated in DMEM with 10% serum for 48 hr then changed to DMEM containing either 10% or 0.5% serum overnight as indicated. […]\nFor in vivo PLD activity, cells were plated in 60 mm culture dishes in DMEM with 10% serum at a density that would allow them to grow to about 80% confluence after 2 days, then cells were shifted to DMEM containing 0.5% or 10% serum as indicated in the figure legends overnight. […] Briefly, PLD activity was measured by the release of [methyl-^3H] choline from [choline-methyl-^3H]dipalmitoyl-phosphatidylcholine. […] Free [methyl-^3H] choline was separated from precipitated lipids and proteins by centrifugation and was analyzed by liquid scintillation counting. […]"}}, "data": [{"compound": "C=CCc1ccc(O)c(-c2ccc(O)c(CC=C)c2)c1", "note": "[honokiol, Honokiol]", "values": [{"measurement": "tolerability", "setting": "[1]", "value": "well tolerated"}, {"measurement": "apoptosis in B-CLL cells", "setting": "[2]", "value": "induce caspase-dependent apoptosis"}, {"measurement": "stress-induced PLD activity", "setting": "[3]; 0.5% serum", "value": "suppressed"}, {"measurement": "PLD activity observed in the presence of serum", "setting": "[3]; 10% serum", "value": "little effect"}]}]}
